Patent US8093393B2, “Cationic ceramides, and analogs thereof, and their use for preventing or treating cancer” (MUSC Foundation for Research Development, priority 2004, dated 2012)
pIC50: −log10 of the molar value. Where two headings read alike, the source gives them in different places.

Legend:
UM-SCC12 cells = assay: MTT cell survival assay; assay type: cell-based, human; conditions: UM-SCC12, 96 hr
Description: (§1) Cell lines and culture conditions. […] Cells were grown in DMEM containing 10% FCS and 1% penicillin/streptomycin at 37° C. in 5% CO2. The Wi-38 human lung fibroblasts were obtained from American Type Culture Collection, and were grown in DMEM as described above. Adult human epidermal keratinocytes were purchased from Cascade Biologics, and were maintained in EpiLife medium with growth supplements as described by the manufacturer.
(§2) MTT cell survival assay and isobologram studies. […] Triplicate wells were used for each treatment. The final concentration of DMSO (a solvent for conventional ceramides, GMZ and DOX) in the growth medium was less than 0.1% (v/v) which has no effect on cell growth and survival. Pyridinium ceramides were dissolved in sterile water or growth medium. In short, after cells (5-10×10^3/well) were seeded in 96-well-plates for 24 hr, they were treated with increasing concentrations of ceramide analogs for an additional 48 or 96 hr. For combination treatments, ceramides and chemotherapeutic agents (gemcitabine (GMZ) or doxorubicin (DOX)) were added to the growth medium simultaneously during treatment. Isobologram plots were then constructed using IC50 values of the two agents alone or in combination obtained from MTT assays. […]

[1] = system: Wi-38 human lung fibroblasts; assay: MTT cell survival assay, non-cancerous cells; assay type: cell-based; conditions: Wi-38 fibroblasts, DMEM; read-out: IC50, cell growth in DMEM
Description: as §1
(§3) MTT cell survival assay and isobologram studies. […] Triplicate wells were used for each treatment. The final concentration of DMSO (a solvent for conventional ceramides, GMZ and DOX) in the growth medium was less than 0.1% (v/v) which has no effect on cell growth and survival. Pyridinium ceramides were dissolved in sterile water or growth medium. In short, after cells (5-10×10^3/well) were seeded in 96-well-plates for 24 hr, they were treated with increasing concentrations of ceramide analogs for an additional 48 or 96 hr. For combination treatments, ceramides and chemotherapeutic agents (gemcitabine (GMZ) or doxorubicin (DOX)) were added to the growth medium simultaneously during treatment. Isobologram plots were then constructed using IC50 values of the two agents alone or in combination obtained from MTT assays. A straight line joining points on x- and y-axes represent the IC50 concentrations of two agents, and the points representing the IC50 concentrations of the combination of the two agents are represented as scatter plots on the same graphs.

[2] = system: adult human epidermal keratinocytes (HEK); assay: MTT cell survival assay, non-cancerous cells; assay type: cell-based
Description: as §1, §3

UM-SCC-22A cells [3] = assay: Apoptotic cell death by annexin V staining; assay type: cell-based, human
Description: Thus, these ceramide analogs appear to exert minimal apoptotic activity on their own, with selective cell cycle arrest in these cells.

UM-SCC-1 cells = assay: MTT cell survival assay; assay type: cell-based, human; conditions: UM-SCC-1, 96 hr; read-out: IC50, cell survival
Description: as §1, §2

UM-SCC-22A cells [4] = assay: MTT cell survival assay and isobologram studies; assay type: cell-based, human
telomerase [5] = target: T1, telomerase (Homo sapiens, UniProt O14746); assay: Telomerase activity (TRAP), compound applied directly to cell extracts; assay type: biochemical; conditions: 10, 20 and 100 μM
T1 construct: endogenous in cells; host or cells: UM-SCC-22A
T1 sequence (O14746 whole entry): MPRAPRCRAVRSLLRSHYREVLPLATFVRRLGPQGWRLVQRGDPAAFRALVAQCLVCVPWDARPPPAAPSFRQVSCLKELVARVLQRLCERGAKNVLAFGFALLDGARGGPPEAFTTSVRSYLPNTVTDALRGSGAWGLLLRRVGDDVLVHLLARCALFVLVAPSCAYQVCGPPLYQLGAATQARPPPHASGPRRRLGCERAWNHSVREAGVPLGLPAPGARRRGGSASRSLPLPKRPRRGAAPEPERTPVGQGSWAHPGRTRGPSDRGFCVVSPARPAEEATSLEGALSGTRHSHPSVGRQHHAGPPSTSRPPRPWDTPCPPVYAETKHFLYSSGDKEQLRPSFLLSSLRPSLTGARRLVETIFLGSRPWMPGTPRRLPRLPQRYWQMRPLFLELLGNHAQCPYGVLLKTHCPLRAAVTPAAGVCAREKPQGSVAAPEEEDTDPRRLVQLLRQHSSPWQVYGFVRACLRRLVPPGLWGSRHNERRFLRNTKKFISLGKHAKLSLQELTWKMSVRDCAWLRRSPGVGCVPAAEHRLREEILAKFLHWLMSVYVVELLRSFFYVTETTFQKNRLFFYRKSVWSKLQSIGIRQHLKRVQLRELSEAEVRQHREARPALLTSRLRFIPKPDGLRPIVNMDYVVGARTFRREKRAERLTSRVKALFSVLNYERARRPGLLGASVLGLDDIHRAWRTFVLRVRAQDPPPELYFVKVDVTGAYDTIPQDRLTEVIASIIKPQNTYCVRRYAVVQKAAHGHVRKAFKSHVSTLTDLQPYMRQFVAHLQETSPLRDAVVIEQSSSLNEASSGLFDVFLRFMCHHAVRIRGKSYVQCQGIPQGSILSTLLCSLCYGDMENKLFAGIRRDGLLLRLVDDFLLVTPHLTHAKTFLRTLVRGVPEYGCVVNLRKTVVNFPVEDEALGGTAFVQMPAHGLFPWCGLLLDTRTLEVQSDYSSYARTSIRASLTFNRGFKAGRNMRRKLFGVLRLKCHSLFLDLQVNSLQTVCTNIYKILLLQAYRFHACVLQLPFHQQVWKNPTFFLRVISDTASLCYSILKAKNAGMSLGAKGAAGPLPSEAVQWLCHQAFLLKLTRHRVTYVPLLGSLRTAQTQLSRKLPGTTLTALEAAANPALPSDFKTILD
T1 sequence (O60832 whole entry partner): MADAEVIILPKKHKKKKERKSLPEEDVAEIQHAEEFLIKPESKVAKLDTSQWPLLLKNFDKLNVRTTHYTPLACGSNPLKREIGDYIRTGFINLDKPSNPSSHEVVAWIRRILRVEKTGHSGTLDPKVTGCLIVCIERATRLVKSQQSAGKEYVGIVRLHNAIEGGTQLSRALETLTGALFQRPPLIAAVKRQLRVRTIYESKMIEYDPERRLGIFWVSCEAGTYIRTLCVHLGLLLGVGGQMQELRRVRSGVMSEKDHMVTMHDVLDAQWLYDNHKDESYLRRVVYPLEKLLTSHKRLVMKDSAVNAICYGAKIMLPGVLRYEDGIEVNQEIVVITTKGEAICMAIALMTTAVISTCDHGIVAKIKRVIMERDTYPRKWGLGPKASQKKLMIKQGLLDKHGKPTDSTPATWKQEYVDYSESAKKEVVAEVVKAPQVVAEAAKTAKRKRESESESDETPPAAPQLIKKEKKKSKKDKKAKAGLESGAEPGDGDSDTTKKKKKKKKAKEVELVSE
T1 sequence (Q9NPE3 whole entry partner): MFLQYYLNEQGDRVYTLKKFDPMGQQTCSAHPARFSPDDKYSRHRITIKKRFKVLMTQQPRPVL
T1 sequence (Q9NX24 whole entry partner): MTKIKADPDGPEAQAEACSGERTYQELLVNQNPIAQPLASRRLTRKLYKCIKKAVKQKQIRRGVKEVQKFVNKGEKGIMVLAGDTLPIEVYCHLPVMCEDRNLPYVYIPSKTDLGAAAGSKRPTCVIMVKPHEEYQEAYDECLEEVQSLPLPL
T1 sequence (Q9NY12 whole entry partner): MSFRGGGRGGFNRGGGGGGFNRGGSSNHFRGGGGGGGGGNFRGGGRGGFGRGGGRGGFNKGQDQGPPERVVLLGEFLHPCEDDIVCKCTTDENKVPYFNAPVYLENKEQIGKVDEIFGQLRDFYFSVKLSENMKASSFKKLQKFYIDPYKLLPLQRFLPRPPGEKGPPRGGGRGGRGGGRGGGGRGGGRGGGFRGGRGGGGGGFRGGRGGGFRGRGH
T1 sequence (Q9BUR4 whole entry partner): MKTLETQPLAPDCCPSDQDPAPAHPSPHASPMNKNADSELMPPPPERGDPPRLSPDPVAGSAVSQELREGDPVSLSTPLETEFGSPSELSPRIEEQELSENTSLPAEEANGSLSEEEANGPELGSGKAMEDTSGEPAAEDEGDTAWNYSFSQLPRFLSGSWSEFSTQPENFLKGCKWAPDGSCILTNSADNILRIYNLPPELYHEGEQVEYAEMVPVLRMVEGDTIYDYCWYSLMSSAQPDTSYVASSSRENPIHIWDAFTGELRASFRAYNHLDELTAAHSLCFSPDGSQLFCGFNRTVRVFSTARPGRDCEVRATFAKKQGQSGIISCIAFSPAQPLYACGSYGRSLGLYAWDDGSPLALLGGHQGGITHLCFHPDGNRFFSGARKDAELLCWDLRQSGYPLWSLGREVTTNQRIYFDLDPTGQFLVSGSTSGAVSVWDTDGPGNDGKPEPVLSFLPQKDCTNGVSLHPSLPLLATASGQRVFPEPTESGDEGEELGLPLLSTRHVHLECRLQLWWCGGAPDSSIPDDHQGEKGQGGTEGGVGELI
Description: FIGS. 13A to 13B. Roles of CCPS on cell cycle profiles, and telomerase activity of UM-SCC-22A cells. (FIG. 13A) The effects of D-e-C6—, D-e-C12- and L-th-C12-pyridinium ceramides (at 1 μM for 48 hr) on cell cycle profiles of UM-SCC-22A cells were determined and compared to that of untreated cells using flow cytometry as described in Materials and Methods. (FIG. 13B) The effects of 0, 100, 250 and 500 nM L-t-C6-Pyr-Cer (LCL-124) (lanes 1-4, respectively) at 96 hr treatment in UM-SCC-22A cells on telomerase activity was assessed using TRAP assay. Lanes 5 and 6 contain positive (+) and negative (−) controls. To examine whether C6-Pyr-Cer inhibits telomerase activity directly, cell extracts (as shown in lane 1) were incubated in the presence of various concentrations of L-th-C6-Pyr-ceramide (LCL-124; 10, 20 and 100 μM) and telomerase activity was determined using TRAP assay (lanes 7-9, respectively). The presence of non-telomeric 36 bp internal standard (IS) in the TRAP assay serves as a control for polymerase chain reaction, and used for quantitation/normalization of the activity of telomerase. […]
Determination of telomerase activity. Telomerase activity in cell extracts was measured by the PCR-based telomere repeat amplification protocol (TRAP) using TRAPeze kit (Intergen, Gaithersburg, Md.) which includes a 36-bp internal control to allow quantification of activity. […]

telomerase [6] = assay: Telomerase activity (TRAP) in treated cells; assay type: cell-based, human; conditions: UM-SCC-22A
Description: FIGS. 13A to 13B. Roles of CCPS on cell cycle profiles, and telomerase activity of UM-SCC-22A cells. (FIG. 13A) The effects of D-e-C6—, D-e-C12- and L-th-C12-pyridinium ceramides (at 1 μM for 48 hr) on cell cycle profiles of UM-SCC-22A cells were determined and compared to that of untreated cells using flow cytometry as described in Materials and Methods. (FIG. 13B) The effects of 0, 100, 250 and 500 nM L-t-C6-Pyr-Cer (LCL-124) (lanes 1-4, respectively) at 96 hr treatment in UM-SCC-22A cells on telomerase activity was assessed using TRAP assay. Lanes 5 and 6 contain positive (+) and negative (−) controls. To examine whether C6-Pyr-Cer inhibits telomerase activity directly, cell extracts (as shown in lane 1) were incubated in the presence of various concentrations of L-th-C6-Pyr-ceramide (LCL-124; 10, 20 and 100 μM) and telomerase activity was determined using TRAP assay (lanes 7-9, respectively). The presence of non-telomeric 36 bp internal standard (IS) in the TRAP assay serves as a control for polymerase chain reaction, and used for quantitation/normalization of the activity of telomerase. The results shown are representative of at least two independent experiments.
FIGS. 14A to 14D. […] (FIG. 14A) The effects of various chemotherapeutic agents on cell growth in UM-SCC-22A cells were determined using MTT assays, and the IC50 concentrations of each agent were determined from cell growth plots as described. (FIG. 14B) The synergistic effects of DOX and L-th-C6-Pyr-Cer (LCL-124) on cell growth were assessed using isobologram studies as described in Materials and Methods. (FIG. 14C) The effects of 1 μM L-th-C6-Pyr-Cer (LCL-124) or cetyl-pyridinium-bromide, without ceramide conjugate (used as a control) on the growth inhibition potential of GMZ in UM-SCC-22A cells were determined using MTT assays. (FIG. 14D) The effects of GMZ (100 nM), L-th-C6-Pyr-Cer (LCL-124; 1 μM) or GMZ and L-th-C6-Pyr-Cer (LCL-124) (100 nM and 1 μM, respectively) on telomerase activity in UM-SCC-22A cells at 48 hr were examined using TRAP assay, and compared to that of untreated controls (lanes 2, 3, 4 and 1, respectively). The data shown are representative of at least two independent experiments performed in triplicate samples. Standard deviations in each sample were between 0.1-0.5.
Determination of telomerase activity. Telomerase activity in cell extracts was measured by the PCR-based telomere repeat amplification protocol (TRAP) using TRAPeze kit (Intergen, Gaithersburg, Md.) which includes a 36-bp internal control to allow quantification of activity. In short, the intensity of telomere-specific DNA bands, measured using Quantity One (BioRad) software, were normalized to the intensity of internal control bands for each sample on polyacrylamide gels for quantification.

## CCCCCCCCCCCCCC=CC(O)C(CO)NC(=O)CCCCC[n+]1ccccc1 (stereo not drawn) [C6-Pyr-Cer]
UM-SCC12 cells
  pIC50: 6.52 to 6.60
[1]
  pIC50: < 6.00
[2]; HEK, EpiLife medium, 96 hr, read-out: IC50, cell growth in EpiLife medium
  pIC50: < 5.70
[2]; keratinocytes, DMEM, read-out: IC50, cell growth in DMEM
  pIC50: < 6.00
UM-SCC-22A cells [3]
  apoptotic cell death, annexin V staining: did not show any detectable signal
UM-SCC-1 cells
  pIC50: 6.52 to 6.60
UM-SCC-22A cells [4]; UM-SCC-22A, 1 μM with various concentrations of GMZ, 48 hr
  effect on the growth inhibition by GMZ: enhanced the anti-proliferative effects of GMZ
UM-SCC-22A cells [4]; UM-SCC-22A, 25, 50 and 100 nM with DOX, 96 hr
  interaction with DOX, isobologram: decreased growth synergistically
UM-SCC-22A cells [4]; UM-SCC-22A, 96 hr
  fold more effective in inhibiting cell growth than conventional C6-ceramides: > 4 fold
  optimum concentration for synergistic interaction with DOX: 50 nM
UM-SCC-22A cells [4]; UM-SCC-22A, 96 hr, DMEM, read-out: IC50, cell growth
  pIC50: ~6.52
UM-SCC-22A cells [4]; UM-SCC-22A, EpiLife medium, 96 hr, read-out: IC50, cell growth in EpiLife medium
  pIC50: < 5.70
UM-SCC-22A cells [4]; in vitro
  fold more effective in squamous cell carcinoma cells than in non-cancerous fibroblasts or keratinocytes: > 4 fold
Telomerase [5]
  effect on telomerase activity when applied directly to the extracts: no significant effect on telomerase activity
Telomerase [6]; 100 nM, 96 hr
  inhibition of telomerase activity: about 30%
Telomerase [6]; 250 nM, 96 hr
  inhibition of telomerase activity: ~50%
Telomerase [6]; 500 nM, 96 hr
  inhibition of telomerase activity: ~75%
Telomerase [6]; 48 hr, C6-Pyr-Cer 1 μM, GMZ 100 nM
  inhibition of telomerase activity: 30%
